Experimental data reported in US11242334B2, “Heterocyclic compounds as kinase inhibitors, compositions comprising the heterocyclic compound, and methods of use thereof” (JS INNOPHARM (SHANGHAI) LTD, priority 2017, dated 2022).

Legend:
human ERK2 = biological target: T1, human ERK2 (Homo sapiens, UniProt P28482); assay: LanthaScreen TR-FRET enzymatic assay, ERK2; conditions: IC50 values of ERK2 biochemical activity; 5 μM ATP, 400 nM ATF2-GFP substrate
T1 construct: recombinantly expressed as GST-tagged full-length protein purified from E. coli; GST; purchased Invitrogen PV3311; host or cells: E. coli
Procedure, shortened: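 GST-tagged full-length ERK2 from E. coli, activated with MAP2K1, was used at 20 ng/ml with 400 nM GFP-ATF2(19-96) and 5 μM ATP (near Km). Compound was pre-incubated 15 min, and the reaction ran 1 h at room temperature. pThr71 was detected by Tb-antibody TR-FRET ratio, with IC50 from sigmoid fitting against 1% DMSO.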

Colo205 cell line = assay: Colo205 cell proliferation assay (MTT assay, WST-8 readout); format: cell-based; conditions: Homo sapiens; IC50 values of growth inhibition in Colo 205 cells; 72 hours
Procedure, shortened: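 Colo205 cells were seeded at 5,000 cells/well in RPMI-1640 with 10% FBS and attached for 24 h at 37° C. They were then exposed for 72 h to compound at final 50 μM to 0.005 μM (0.5% DMSO). Viability was read as WST-8 absorbance at 450 nm after 2 h, and IC50 of growth inhibition was determined.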

T1 sequence (P28482 whole entry): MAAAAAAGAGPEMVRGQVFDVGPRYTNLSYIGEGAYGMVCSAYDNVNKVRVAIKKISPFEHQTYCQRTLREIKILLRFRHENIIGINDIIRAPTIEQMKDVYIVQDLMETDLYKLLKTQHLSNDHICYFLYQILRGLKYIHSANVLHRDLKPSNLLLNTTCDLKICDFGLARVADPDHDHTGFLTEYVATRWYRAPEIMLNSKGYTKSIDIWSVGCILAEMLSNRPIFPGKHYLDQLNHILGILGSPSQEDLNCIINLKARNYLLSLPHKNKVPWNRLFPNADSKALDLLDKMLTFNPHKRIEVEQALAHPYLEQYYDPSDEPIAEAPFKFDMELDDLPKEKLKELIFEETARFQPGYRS

Question: Which IC50 (human ERK2) does the source give for `CNCC(c1ccc(F)c(Cl)c1)n1ccc(-c2ccc3[nH]nc(-c4ccnc(C)c4)c3c2)cc1=O` (stereo not shown) [Example 107, 1-(1-(3-chloro-4-fluorophenyl)-2-(methylamino)ethyl)-4-(3-(2-methylpyridin-4-yl)-1H-indazol-5-yl)pyridin-2(1H)-one] here?
Answer: The IC50 was under 10 nM.

Question: What about the IC50 (Colo205 cell line) of the same compound?
Answer: Its IC50 is at most 500 nM.

Question: What does the source list for `Cn1cc(-c2n[nH]c3ncc(-c4ccn([C@H](CO)c5ccc(F)c(Cl)c5)c(=O)c4)cc23)cn1` [Example 108, (S)-1-(1-(3-chloro-4-fluorophenyl)-2-hydroxyethyl)-4-(3-(1-methyl-1H-pyrazol-4-yl)-1H-pyrazolo[3,4-b]pyridin-5-yl)pyridin-2(1H)-one]?
Answer: IC50 (human ERK2): < 10 nM; IC50 (Colo205 cell line): 1000 to 5000 nM

Question: `O=c1cc(-c2ccc3[nH]nc(-c4cnn(CCO)c4)c3c2)ccn1[C@H](CO)c1ccc(F)c(Cl)c1` [Example 109, (S)-1-(1-(3-chloro-4-fluorophenyl)-2-hydroxyethyl)-4-(3-(1-(2-hydroxyethyl)-1H-pyrazol-4-yl)-1H-indazol-5-yl)pyridin-2(1H)-one] was tested. Which IC50 (human ERK2) did it give?
Answer: The IC50 was under 10 nM.

Question: What about the IC50 (Colo205 cell line) of the same compound?
Answer: The IC50 was over 5000 nM.

Question: With `CCOc1ccc(-c2n[nH]c3ncc(-c4ccn([C@H](CO)c5cc(F)cc(Br)c5)c(=O)c4)cc23)cn1` [Example 110, (S)-1-(1-(3-bromo-5-fluorophenyl)-2-hydroxyethyl)-4-(3-(6-ethoxypyridin-3-yl)-1H-pyrazolo[3,4-b]pyridin-5-yl)pyridin-2(1H)-one] as the compound, how does the IC50 (human ERK2) read?
Answer: The IC50 was under 10 nM.

Question: And the IC50 (Colo205 cell line)?
Answer: The IC50 was 500 to 1000 nM.

Question: Which results are given for `O=c1cc(-c2ccc3[nH]nc(-c4ccc(F)cc4)c3c2)ccn1[C@H](CO)c1cc(F)cc(Br)c1` [Example 111, (S)-1-(1-(3-bromo-5-fluorophenyl)-2-hydroxyethyl)-4-(3-(4-fluorophenyl)-1H-indazol-5-yl)pyridin-2(1H)-one]?
Answer: IC50 (human ERK2): < 10 nM; IC50 (Colo205 cell line): ≤ 500 nM

Question: Which IC50 (human ERK2) does the source give for `Cc1cc(-c2n[nH]c3ccc(-c4ccn(Cc5ccnc(C(F)(F)F)c5)c(=O)c4)nc23)ccn1` [Example 112, 4-(3-(2-methylpyridin-4-yl)-1H-pyrazolo[4,3-b]pyridin-5-yl)-1-((2-(trifluoromethyl)pyridin-4-yl)methyl)pyridin-2(1H)-one] here?
Answer: Its IC50 is under 10 nM.

Question: What about the IC50 (Colo205 cell line) of the same compound?
Answer: The IC50 was 1000 to 5000 nM.

Question: Which IC50 (human ERK2) does the source give for `Cn1cc2cc(-c3n[nH]c4ccc(-c5ccn([C@H](CO)c6cc(F)cc(Br)c6)c(=O)c5)cc34)ccc2n1` [Example 113, (S)-1-(1-(3-bromo-5-fluorophenyl)-2-hydroxyethyl)-4-(2′-methyl-1H,2′H-[3,5′-biindazol]-5-yl)pyridin-2(1H)-one] here?
Answer: Its IC50 is under 10 nM.

Question: And the IC50 (Colo205 cell line)?
Answer: The IC50 was at most 500 nM.

Question: How did the IC50 (human ERK2) turn out when `O=c1cc(-c2ccc3[nH]nc(-c4ccc5ncsc5c4)c3c2)ccn1[C@H](CO)c1cc(F)cc(Br)c1` [Example 114, (S)-4-(3-(benzo[d]thiazol-6-yl)-1H-indazol-5-yl)-1-(1-(3-bromo-5-fluorophenyl)-2-hydroxyethyl)pyridin-2(1H)-one] was run?
Answer: Its IC50 is under 10 nM.

Question: What about the IC50 (Colo205 cell line) of the same compound?
Answer: The IC50 was at most 500 nM.

Question: Which IC50 (human ERK2) does the source give for `COc1cc(-c2n[nH]c3ccc(-c4ccn([C@H](CO)c5cc(F)cc(Br)c5)c(=O)c4)cc23)ccn1` [Example 115, (S)-1-(1-(3-bromo-5-fluorophenyl)-2-hydroxyethyl)-4-(3-(2-methoxypyridin-4-yl)-1H-indazol-5-yl)pyridin-2(1H)-one] here?
Answer: Its IC50 is under 10 nM.

Question: What about the IC50 (Colo205 cell line) of the same compound?
Answer: Its IC50 is at most 500 nM.

Question: Which results are given for `COc1ccc(-c2n[nH]c3ccc(-c4ccn(Cc5ccnc(C(F)(F)F)c5)c(=O)c4)cc23)cn1` [Example 116, 4-(3-(6-methoxypyridin-3-yl)-1H-indazol-5-yl)-1-((2-(trifluoromethyl)pyridin-4-yl)methyl)pyridin-2(1H)-one]?
Answer: IC50 (human ERK2): < 10 nM; IC50 (Colo205 cell line): 1000 to 5000 nM

Question: For `O=c1cc(-c2ccc3[nH]nc(-c4ccc(F)cc4)c3c2)ccn1Cc1ccnc(C(F)(F)F)c1` [Example 117, 4-(3-(4-fluorophenyl)-1H-indazol-5-yl)-1-((2-(trifluoromethyl)pyridin-4-yl)methyl)pyridin-2(1H)-one], which IC50 (human ERK2) is on record?
Answer: Its IC50 is under 10 nM.

Question: What about the IC50 (Colo205 cell line) of the same compound?
Answer: Its IC50 is 1000 to 5000 nM.
